Reference: patent US7829555B1, “Drug targeting” (The University of Manchester, priority 1997, dated 2010)

How the values were obtained:
[1] = Pharmacokinetics of the indoloquinone-acetyl salicylic acid conjugate in carrageenin air pouch rats (HPLC of blood, exudate, urine); assay type: in vivo, male Wistar albino rats; details: rats with carrageenin air pouch, 20 mg conjugate injected, exudate and urine collected after 2 or 4 hours
Protocol: Pharmacokinetics of the indoloquinone-acetyl salicylic acid conjugate of Example 5 were studied as follows:
Three groups of male Wistar albino rats (n=5) received sterile air dorsally (day 1). After two days a further 20 ml sterile air were administered. On day 5, 2 ml of a 1% carrageenin in sterile saline was injected directly into the air pouch. Animals were housed in metabolic cages. 100 mg of the indoloquinone-aspirin conjugate of Example 5 were suspended in ethanol (2 ml). 50 mg acetyl salicylic acid was dissolved in 2 ml ethanol. 2 ml ethanol was used as a control. 18 ml sterile water were added to each sample. On day 9, each animal was injected with 4 ml of solution as follows: Group A—20 mg indoloquinone-aspirin conjugate Group B—10 mg acetyl salicylic acid Group C—ethanol (control) The animals were then returned to their cages for periods of either 2 (nos. 1, 2 and 3 from each group) or 4 hours (nos. 4 and 5 from each group). After this time the animals were anaesthetized and blood and exudate collected. Available urine was also collected.

[2] = Reduction initiated release of aspirin, product analysis (HPLC) following γ-radiolysis; assay type: physicochemical; details: reduction by (CH3)2C.OH radical; N2O-saturated solution, quinone 100 μM, 2-propanol 8.3M (50%, v/v), pH 7.4
Protocol: The reduction initiated release of aspirin from the indoloquinone-acetyl salicylic acid conjugate of Example 5 was investigated by product analysis (HPLC) following γ-radiolysis of N2O-saturated solutions containing the quinone (100 μM) and 2-propanol (8.3M, 50%, v/v) at pH 7.4.
The radiation chemical yield (G) of the (CH3)2C.OH radical in N2O-saturated 2-propanol/water mixtures was determined by ferricyanide reduction to be G((CH3)2C.OH)=0.67±0.02 μmol J^−1 in 2-propanol/water (50%, v/v) and 0.72±0.03 μmol J^−1 in 1 M 2-propanol respectively. […] Loss of the parent quinone (G(−Q)=1.63±0.01 μmol J^−1) parallel the formation of the aspirin leaving group (LG) with G(LG)=1.40±0.15 μmol J^−1.
Indolequinone solutions were saturated with N2O gas in gas-tight vials before irradiation in a ^60Co source. […] A dose rate of 6-6.5 Gy min^−1 was used, as determined by Fricke dosimetry and radiation chemical yields were corrected for the absorbed dose in the various alcohol-water mixtures employed.
Product analysis following γ-radiolysis was performed by gradient HPLC separation on a 100 mm×4.6 mm base-deactivated reverse-phase column (Hichrom RPB, Hichrom, Reading, U.K.). […] Detection was at 232 nm using a Waters 486 detector (Watford, U.K.) and concentrations were determined from peak areas using Waters Maxima software.

COC1=CC(=O)c2c(c(COC(=O)c3ccccc3OC(C)=O)c(C)n2C)C1=O [Example 5, 3-(2-Acetoxybenzoyloxy)methyl-1,2-dimethyl-5-methoxyindole-4,7-dione]
Cleavage of conjugate in collected samples (HPLC) [1]: cleaved to liberate acetyl salicylic acid
Formation of the aspirin leaving group, radiation chemical yield G(LG) [2]: 1.40 ± 0.15 µmol/J
Loss of the parent quinone, radiation chemical yield G(−Q) [2]: 1.63 ± 0.01 µmol/J
